Columns and labels:
[1] = molecular target: T1, human recombinant ETA receptors (Homo sapiens, UniProt P25101); assay: Inhibition of [125I]ET-1 binding to membranes from CHO cells carrying human ETA receptors
T1 construct: expressed in transfected cells; host or cells: CHO cells
T1 sequence (P25101 21-427): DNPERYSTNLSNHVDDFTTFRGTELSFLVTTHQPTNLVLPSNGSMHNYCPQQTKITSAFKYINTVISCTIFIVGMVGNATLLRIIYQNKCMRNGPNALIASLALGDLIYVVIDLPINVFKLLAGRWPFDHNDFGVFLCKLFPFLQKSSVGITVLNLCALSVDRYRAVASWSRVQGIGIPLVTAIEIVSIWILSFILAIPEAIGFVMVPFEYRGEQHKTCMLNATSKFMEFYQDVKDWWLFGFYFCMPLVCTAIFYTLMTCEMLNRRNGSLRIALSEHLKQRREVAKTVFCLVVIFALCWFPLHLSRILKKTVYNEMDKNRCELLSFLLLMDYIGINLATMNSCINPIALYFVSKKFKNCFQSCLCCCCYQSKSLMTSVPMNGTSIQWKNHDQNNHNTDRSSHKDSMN
Protocol: (§1) 1) Inhibition of Endothelin Binding to Membranes from CHO Cells Carrying Human ET Receptors:
(§2) For competition binding studies, membranes of CHO cells expressing human recombinant ETA or ETB receptors were used.
(§3) The assay was performed in 200 uL 50 mM Tris/HCl buffer, pH 7.4, including 25 mM MnCl2, 1 mM EDTA and 0.5% (w/v) BSA in polypropylene microtiter plates. […] After 2 h, the membranes were filtered on filterplates containing GF/C filters (Unifilterplates from Can berra Packard S. A. Zürich, Switzerland). To each well, 50 uL of scintillation cocktail was added (MicroScint 20, Can berra Packard S. A. Zürich, Switzerland) and the filter plates counted in a microplate counter (TopCount, Can berra Packard S. A. Zürich, Switzerland).
(§4) All the test compounds were dissolved, diluted and added in DMSO.

[2] = molecular target: T2, rat aortic rings (ETA receptors) (Rattus norvegicus, UniProt P26684); assay: Inhibition of endothelin-1-induced contractions on isolated rat aortic rings; type: cell-based; details: read-out: pA2 (aortic rings) (converted)
T2 construct: from tissue; host or cells: thoracic aorta rings of adult Wistar rats, endothelium removed
T2 sequence (P26684 21-426): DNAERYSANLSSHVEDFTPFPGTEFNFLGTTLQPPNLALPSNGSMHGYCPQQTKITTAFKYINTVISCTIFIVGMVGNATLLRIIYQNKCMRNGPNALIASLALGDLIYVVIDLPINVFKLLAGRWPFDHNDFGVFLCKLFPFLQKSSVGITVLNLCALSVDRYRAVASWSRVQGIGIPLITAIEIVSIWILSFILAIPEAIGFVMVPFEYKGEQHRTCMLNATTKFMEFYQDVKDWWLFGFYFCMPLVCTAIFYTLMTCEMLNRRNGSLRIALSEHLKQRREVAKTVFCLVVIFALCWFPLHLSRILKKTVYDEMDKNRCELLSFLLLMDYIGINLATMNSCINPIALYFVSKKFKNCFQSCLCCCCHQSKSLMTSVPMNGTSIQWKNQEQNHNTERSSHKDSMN
Protocol: (§5) 2) Inhibition of Endothelin-Induced Contractions on Isolated Rat Aortic Rings (ETA Receptors) and Rat Tracheal Rings (ETB Receptors):
(§6) Adult Wistar rats were anesthetized and exsanguinated. The thoracic aorta or trachea were excised, dissected and cut in 3–5 mm rings. The endothelium/epithelium was removed by gentle rubbing of the intimal surface. […] The rings were connected to force transducers and isometric tension was recorded (EMKA Technologies SA, Paris, France). The rings were stretched to a resting tension of 3 g (aorta) or 2 g (trachea). […] The functional inhibitory potency of the test compound was assessed by calculating the concentration ratio, i.e. the shift to the right of the EC50 induced by different concentrations of test compound. EC50 is the concentration of endothelin needed to get a half-maximal contraction, pA2 is the negative logarithm of the antagonist concentration which induces a two-fold shift in the EC50 value.

[3] = molecular target: T3, human recombinant ETB receptors (Homo sapiens, UniProt P24530); assay: Inhibition of [125I]ET-1 binding to membranes from CHO cells carrying human ETB receptors
T3 construct: expressed in transfected cells; host or cells: CHO cells
T3 sequence (P24530 27-442): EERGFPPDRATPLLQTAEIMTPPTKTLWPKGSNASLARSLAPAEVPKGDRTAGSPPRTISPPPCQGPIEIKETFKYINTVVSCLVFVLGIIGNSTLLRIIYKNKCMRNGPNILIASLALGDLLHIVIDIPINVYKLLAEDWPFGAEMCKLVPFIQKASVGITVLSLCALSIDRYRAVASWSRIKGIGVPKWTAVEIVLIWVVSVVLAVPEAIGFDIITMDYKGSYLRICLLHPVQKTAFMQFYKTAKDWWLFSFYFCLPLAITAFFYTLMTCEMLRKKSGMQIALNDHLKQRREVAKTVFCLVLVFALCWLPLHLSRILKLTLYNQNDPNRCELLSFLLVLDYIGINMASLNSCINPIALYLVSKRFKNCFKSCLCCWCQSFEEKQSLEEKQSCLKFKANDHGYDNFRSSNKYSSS
Protocol: as §1, §2, §3, §4

[4] = molecular target: T4, rat tracheal rings (ETB receptors) (Rattus norvegicus, UniProt P21451); assay: Inhibition of sarafotoxin S6c-induced contractions on isolated rat tracheal rings; type: cell-based
T4 construct: from tissue; host or cells: tracheal rings of adult Wistar rats, epithelium removed
T4 sequence (P21451 27-442): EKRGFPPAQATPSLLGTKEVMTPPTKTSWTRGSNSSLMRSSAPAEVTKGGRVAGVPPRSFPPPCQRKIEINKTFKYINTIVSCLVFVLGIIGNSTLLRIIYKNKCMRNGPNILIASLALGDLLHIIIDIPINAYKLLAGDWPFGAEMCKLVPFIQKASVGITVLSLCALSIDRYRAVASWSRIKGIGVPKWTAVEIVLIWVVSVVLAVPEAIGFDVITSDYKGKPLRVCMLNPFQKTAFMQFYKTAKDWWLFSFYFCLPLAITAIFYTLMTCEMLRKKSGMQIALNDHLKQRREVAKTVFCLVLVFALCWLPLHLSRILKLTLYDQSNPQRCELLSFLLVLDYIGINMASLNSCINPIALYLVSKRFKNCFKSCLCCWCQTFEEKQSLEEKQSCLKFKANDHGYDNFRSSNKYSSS
Protocol: as §5, §6

Row | SMILES | IC50 [1] [nM] | Kb [2] [nM] | IC50 [3] [nM] | Kb [4] [nM]
1 | COc1ccccc1Oc1c(NS(=O)(=O)CCc2ccccc2)nc(-c2ncccn2)nc1OCCOc1ncc(Br)cn1 [Example 5, 2phenylethanesulfonic acid {5-(2-methoxy-phenoxy)-6-[2-(5-bromopyrimidin-2-yloxy)-ethoxy]-2-(2-pyrimidinyl)-4-pyrimidinyl}-amide] | 3 | 4.17 |  | 
2 | COc1ccccc1Oc1c(NS(=O)(=O)CCc2ccccc2)nc(N2CCOCC2)nc1OCCOc1ncc(SC)cn1 [Example 39] | 3 |  | 261 | 
3 | COc1ccccc1Oc1c(NS(=O)(=O)CCc2ccccn2)nc(-c2ccncc2)nc1OCCOc1ncc(Br)cn1 [Example 61] | 10 | 14.8 | 1140 | 85.1
4 | COc1ccccc1Oc1c(NS(=O)(=O)Cc2ccc(C)cc2)nc(-c2ccncc2)nc1OCCOc1ncc(Br)cn1 [Example 71] | 115 |  | > 10000 | 
5 | Cc1ccc(-c2c(NS(=O)(=O)CCc3ccccc3)nc(-c3ncccn3)nc2OCCOc2ncc(Br)cn2)cc1 [Example 14] | 6 |  | 2230 | 
6 | Cc1ccc(-c2c(NS(=O)(=O)CCc3ccccc3)nc(-c3ncccn3)nc2OCCOc2ncc(Cl)cn2)cc1 [Example 13] | 4 |  | 3680 | 
7 | Cc1ccc(-c2c(NS(=O)(=O)CCc3ccccc3)nc(-c3ccncc3)nc2OCCOc2ncc(Br)cn2)cc1 [Example 10] | 9 |  | 2410 | 
8 | COc1cnc(OCCOc2nc(-c3ncccn3)nc(NS(=O)(=O)CCc3ccccc3)c2Oc2ccccc2OC)nc1 [Example 29] | 10 |  |  | 
9 | COc1cccc(Oc2c(NS(=O)(=O)CCc3ccccc3)ncnc2OCCOc2ncc(Br)cn2)c1 [Example 46] | 7 |  | 2360 | 
10 | Cc1ccc(-c2c(NS(=O)(=O)CCc3cccs3)ncnc2OCCOc2ncc(Br)cn2)cc1 [Example 49] | 4 |  | 2490 | 
11 | COc1cnc(OCCOc2ncnc(NS(=O)(=O)CCc3ccccc3)c2Oc2cccc(OC)c2)nc1 [Example 47] | 24 |  | 2720 | 
12 | COc1cnc(OCCOc2nc(-c3cnccn3)nc(NS(=O)(=O)CCc3ccccc3)c2Oc2ccccc2OC)nc1 [Example 34] |  | 21.4 |  | 
13 | Cc1ccc(-c2c(NS(=O)(=O)CCc3ccccc3)ncnc2OCCOc2ncccn2)cc1 [Example 1, 2-phenyl-ethanesulfonic acid {6-[2-(pyrimidin-2-yloxy)-ethoxy]-5-p-tolyl-pyrimidin-4-yl}-amide] | 27 |  | 6650 | 
14 | O=S(=O)(CCc1cccs1)Nc1ncnc(OCCOc2ncc(Br)cn2)c1-c1ccc(Cl)cc1 [Example 52] | 5 |  | 1770 | 
15 | Cc1ccc(-c2c(NS(=O)(=O)CCc3ccccc3)ncnc2OCCOc2ccc(C(F)(F)F)cn2)cc1 [Example 2, 2-phenyl-ethanesulfonic acid {5-p-tolyl-6-[2-(5-trifluoromethyl-pyridin-2-yloxy)-ethoxy]-pyrimidin-4-yl}-amide] | 20 |  | 899 | 
16 | Cc1ccc(-c2c(NS(=O)(=O)CCc3ccccc3)ncnc2OCCOc2ncc(Br)cn2)cc1 [Example 7] | 4 | 1.48 | 3310 | 85.1
17 | Cc1ccc(-c2c(NS(=O)(=O)CCCc3ccccc3)ncnc2OCCOc2ncc(Br)cn2)cc1 [Example 75] |  | 17.4 |  | 
18 | Cc1ccc(-c2c(NS(=O)(=O)CCc3ccccc3)ncnc2OCCOc2ncc(C)cn2)cc1 [Example 8] |  | 37.2 |  | 
19 | Cc1ccc(-c2c(NS(=O)(=O)CCc3ccccc3)ncnc2OCCOc2ncc(Br)cn2)cc1C [Example 19] | 3 |  | 1930 | 

From patent US7091201B2, “Arylalkane-sulfonamides having endothelin-antagonist activity” (Actelion Pharmaceuticals Ltd., priority 2000, dated 2006)
